# According to US11214565B2, “Compound, compositions, and methods” (Denali Therapeutics Inc., priority 2015, dated 2022):
# Biological target: LRRK2 G2019S enzyme (Homo sapiens (Human), UniProt Q5S007, G2019S)
# Experiment: LRRK2 G2019S TR-FRET biochemical kinase assay (LRRKtide substrate)
# Conditions: Table A-2; 5 nM LRRK2, 134 μM ATP, 60 minute reaction, 23° C.
# Outline: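 5 nM LRRK2 G2019S preincubated 20 min with LRRKtide and compound (3.162-fold dilution series) in Tris pH 7.5, MgCl2, EGTA, Brij-35, DTT, then reacted 60 min at 23 °C with 134 μM ATP. EDTA-stopped; pLRRKtide antibody detection, TR-FRET read at 340 nm excitation, 520/490–495 nm emission.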
# LRRK2 G2019S enzyme, sequence (Q5S007 whole entry G2019S): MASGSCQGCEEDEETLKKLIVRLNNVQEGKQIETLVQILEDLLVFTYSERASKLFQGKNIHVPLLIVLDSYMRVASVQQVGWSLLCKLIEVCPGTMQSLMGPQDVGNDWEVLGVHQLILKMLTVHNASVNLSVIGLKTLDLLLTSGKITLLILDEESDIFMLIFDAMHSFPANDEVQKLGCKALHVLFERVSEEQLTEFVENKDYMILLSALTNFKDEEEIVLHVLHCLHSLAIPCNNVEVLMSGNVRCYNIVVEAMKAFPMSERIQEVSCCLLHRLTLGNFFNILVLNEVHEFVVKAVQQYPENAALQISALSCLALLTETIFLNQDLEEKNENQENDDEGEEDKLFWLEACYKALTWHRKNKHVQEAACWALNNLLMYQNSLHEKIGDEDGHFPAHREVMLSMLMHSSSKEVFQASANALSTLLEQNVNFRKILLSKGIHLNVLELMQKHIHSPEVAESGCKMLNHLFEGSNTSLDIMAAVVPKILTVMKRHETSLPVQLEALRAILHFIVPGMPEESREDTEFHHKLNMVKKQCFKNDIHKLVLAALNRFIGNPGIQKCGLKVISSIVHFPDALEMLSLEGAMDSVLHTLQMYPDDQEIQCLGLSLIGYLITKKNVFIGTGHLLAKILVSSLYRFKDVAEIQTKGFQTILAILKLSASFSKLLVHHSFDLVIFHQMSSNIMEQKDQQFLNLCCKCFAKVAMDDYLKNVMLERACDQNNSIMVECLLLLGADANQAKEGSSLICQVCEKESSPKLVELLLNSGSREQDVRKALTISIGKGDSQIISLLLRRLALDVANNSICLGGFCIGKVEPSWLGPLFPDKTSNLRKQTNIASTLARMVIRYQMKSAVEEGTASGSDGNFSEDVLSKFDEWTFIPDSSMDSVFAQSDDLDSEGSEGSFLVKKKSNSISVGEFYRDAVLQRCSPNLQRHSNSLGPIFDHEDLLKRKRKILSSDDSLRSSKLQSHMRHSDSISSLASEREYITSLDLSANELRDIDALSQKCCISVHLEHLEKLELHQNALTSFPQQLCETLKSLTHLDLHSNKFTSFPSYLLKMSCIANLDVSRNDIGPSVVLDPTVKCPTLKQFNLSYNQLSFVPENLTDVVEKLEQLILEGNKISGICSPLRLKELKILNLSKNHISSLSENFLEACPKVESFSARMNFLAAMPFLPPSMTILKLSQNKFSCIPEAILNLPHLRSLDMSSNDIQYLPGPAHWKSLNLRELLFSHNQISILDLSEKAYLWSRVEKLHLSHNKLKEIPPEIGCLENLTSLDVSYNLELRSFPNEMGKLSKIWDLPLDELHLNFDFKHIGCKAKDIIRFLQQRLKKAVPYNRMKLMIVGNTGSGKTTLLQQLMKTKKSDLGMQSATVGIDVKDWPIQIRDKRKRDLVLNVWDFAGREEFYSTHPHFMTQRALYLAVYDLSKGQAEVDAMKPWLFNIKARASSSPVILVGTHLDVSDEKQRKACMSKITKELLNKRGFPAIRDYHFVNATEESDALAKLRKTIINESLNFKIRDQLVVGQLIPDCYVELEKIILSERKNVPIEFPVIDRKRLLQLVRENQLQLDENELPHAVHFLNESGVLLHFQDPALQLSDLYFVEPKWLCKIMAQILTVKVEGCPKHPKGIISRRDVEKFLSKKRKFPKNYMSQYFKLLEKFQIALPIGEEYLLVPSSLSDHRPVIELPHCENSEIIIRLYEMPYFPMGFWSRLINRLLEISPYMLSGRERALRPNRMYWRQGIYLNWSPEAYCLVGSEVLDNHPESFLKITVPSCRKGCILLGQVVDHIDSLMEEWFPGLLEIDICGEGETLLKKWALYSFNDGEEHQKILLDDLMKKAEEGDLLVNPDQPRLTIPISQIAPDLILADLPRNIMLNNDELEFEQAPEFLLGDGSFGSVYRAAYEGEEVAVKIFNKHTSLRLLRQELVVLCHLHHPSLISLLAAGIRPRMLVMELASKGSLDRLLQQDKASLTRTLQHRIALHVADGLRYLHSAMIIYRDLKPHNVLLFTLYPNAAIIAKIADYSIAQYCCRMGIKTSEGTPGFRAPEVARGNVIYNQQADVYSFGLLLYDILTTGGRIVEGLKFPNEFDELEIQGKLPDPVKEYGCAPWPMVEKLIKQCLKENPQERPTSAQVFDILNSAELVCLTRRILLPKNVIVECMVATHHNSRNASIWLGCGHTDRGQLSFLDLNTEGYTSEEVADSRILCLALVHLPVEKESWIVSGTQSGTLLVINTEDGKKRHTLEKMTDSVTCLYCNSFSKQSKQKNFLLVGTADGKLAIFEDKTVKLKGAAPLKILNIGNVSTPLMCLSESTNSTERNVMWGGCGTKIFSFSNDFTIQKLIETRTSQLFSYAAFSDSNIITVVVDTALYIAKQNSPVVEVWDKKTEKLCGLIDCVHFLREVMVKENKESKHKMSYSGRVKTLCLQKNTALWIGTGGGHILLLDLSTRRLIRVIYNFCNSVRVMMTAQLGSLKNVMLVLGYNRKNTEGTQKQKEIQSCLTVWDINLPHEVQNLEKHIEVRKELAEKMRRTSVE
row,Compound,IC50
1,"Cc1nn(C(F)(F)c2ncnn2C)cc1Nc1ncc(C(F)(F)F)c(C2CC2)n1 [Compound A-76, 4-cyclopropyl-N-[1-[difluoro-(2-methyl-1,2,4-triazol-3-yl)methyl]-3-methyl-pyrazol-4-yl]-5-(trifluoromethyl)pyrimidin-2-amine]",> 60 nM
2,"Cc1nn(C(F)(F)c2nc[nH]n2)cc1Nc1ncc(C(F)(F)F)c(C2CC2)n1 [Compound A-77, 4-cyclopropyl-N-(1-(difluoro(1H-1,2,4-triazol-3-yl)methyl)-3-methyl-1H-pyrazol-4-yl)-5-(trifluoromethyl)pyrimidin-2-amine]",< 30 nM
3,"Cc1c(Nc2ncc(C(F)(F)F)c(C3CC3)n2)cnn1[C@H]1C[C@H](c2ncnn2C)C1 [Compound A-80, 4-cyclopropyl-N-(5-methyl-1-((1r,3r)-3-(1-methyl-1H-1,2,4-triazol-5-yl)cyclobutyl)-1H-pyrazol-4-yl)-5-(trifluoromethyl)pyrimidin-2-amine]",< 30 nM
4,"Cc1nn([C@H]2C[C@H](c3ncnn3C)C2)cc1Nc1ncc(C(F)(F)F)c(C2CC2)n1 [Compound A-81, 4-cyclopropyl-N-(3-methyl-1-((1r,3r)-3-(1-methyl-1H-1,2,4-triazol-5-yl)cyclobutyl)-1H-pyrazol-4-yl)-5-(trifluoromethyl)pyrimidin-2-amine]",< 30 nM
5,Cc1nn(C(F)(F)C(N)=O)cc1Nc1ncc(C(F)(F)F)c(C2CC2)n1 [Compound A-87],< 30 nM
6,Cc1c(Nc2ncc(C(F)(F)F)c(C3CC3)n2)cnn1C1(C)CCNC1=O (stereo not shown) [Compound A-93],< 30 nM

# Same assay, conditions: Table B-2; 5 nM LRRK2, 134 μM ATP, 60 minute reaction, 23° C.
row,Compound,IC50
1,"CNc1nc(Nc2cnn(C)c2C)nc2[nH]cc(Cl)c12 [Compound B-1, 5-chloro-N^2-(1,5-dimethylpyrazol-4-yl)-N4-methyl-7H-pyrrolo[2,3-d]pyrimidine-2,4-diamine]",1 to 2 nM
2,"CCNc1nc(Nc2cn(C(C)(C)C#N)nc2C)nc2[nH]cc(Cl)c12 [Compound B-2, 2-[4-[[5-chloro-4-(ethylamino)-7H-pyrrolo[2,3-d]pyrimidin-2-yl]amino]-3-methyl-pyrazol-1-yl]-2-methyl-propanenitrile]",≤ 1 nM
3,"CCOc1nc(Nc2cn(C(C)(C)C#N)nc2C)nc2[nH]cc(Cl)c12 [Compound B-3, 2-[4-[[5-chloro-4-ethoxy-7H-pyrrolo[2,3-d]pyrimidin-2-yl]amino]-3-methyl-pyrazol-1-yl]-2-methyl-propanenitrile]",≤ 1 nM
4,"CNc1nc(Nc2cn(C)nc2C)nc2[nH]cc(Cl)c12 [Compound B-4, 5-chloro-N^2-(1,3-dimethyl-1H-pyrazol-4-yl)-N^4-methyl-7H-pyrrolo[2,3-d]pyrimidine-2,4-diamine]",2 to 20 nM
5,"COc1nc(Nc2cn(C(C)(C)C#N)nc2C)nc2[nH]cc(Cl)c12 [Compound B-5, 2-[4-[(5-chloro-4-methoxy-7H-pyrrolo[2,3-d]pyrimidin-2-yl)amino]-3-methyl-pyrazol-1-yl]-2-methyl-propanenitrile]",1 to 2 nM
6,"CNc1nc(Nc2cn(C(C)(C)C#N)nc2C)nc2[nH]cc(Cl)c12 [Compound B-6, 2-[4-[[5-Chloro-4-(methylamino)-7H-pyrrolo[2,3-d]pyrimidin-2-yl]amino]-3-methyl-pyrazol-1-yl]-2-methyl-propanenitrile]",≤ 1 nM
7,"COc1nc(Nc2cn(C(C)(C)C#N)nc2C)nc2[nH]cnc12 [Compound B-7, 2-(4-((6-methoxy-9H-purin-2-yl)amino)-3-methyl-1H-pyrazol-1-yl)-2-methylpropanenitrile]",2 to 20 nM
8,"COc1nc(Nc2cnn(C)c2C)nc2[nH]cc(Cl)c12 [Compound B-8, 5-chloro-N-(1,5-dimethylpyrazol-4-yl)-4-methoxy-7H-pyrrolo[2,3-d]pyrimidin-2-amine]",1 to 2 nM
9,"COc1nc(Nc2cn(C)nc2C)nc2[nH]cc(Cl)c12 [Compound B-9, 5-chloro-N-(1,3-dimethylpyrazol-4-yl)-4-methoxy-7H-pyrrolo[2,3-d]pyrimidin-2-amine]",2 to 20 nM
10,"CNc1nc(Nc2cn(C(C)(C)C#N)nc2C)nc2[nH]cc(F)c12 [Compound B-10, 2-(4-((5-fluoro-4-(methylamino)-7H-pyrrolo[2,3-d]pyrimidin-2-yl)amino)-3-methyl-1H-pyrazol-1-yl)-2-methylpropanenitrile]",1 to 2 nM
11,"COc1nc(Nc2cn(C(C)(C)C#N)nc2C)nc2[nH]cc(F)c12 [Compound B-11, 2-[4-[(5-fluoro-4-methoxy-7H-pyrrolo[2,3-d]pyrimidin-2-yl)amino]-3-methyl-pyrazol-1-yl]-2-methyl-propanenitrile]",1 to 2 nM
12,"CCOc1nc(Nc2cn(C(C)(C)C#N)nc2C)nc2[nH]cnc12 [Compound B-12, 2-[4-[(6-ethoxy-9H-purin-2-yl)amino]-3-methyl-pyrazol-1-yl]-2-methyl-propanenitrile]",2 to 20 nM
13,"COc1nc(Nc2cn(C(C)(C)C#N)nc2C)nc2[nH]cc(C3CC3)c12 [Compound B-13, 2-[4-[(5-cyclopropyl-4-methoxy-7H-pyrrolo[2,3-d]pyrimidin-2-yl)amino]-3-methyl-pyrazol-1-yl]-2-methyl-propanenitrile]",2 to 20 nM
14,"COc1nc(Nc2cn(C(C)(C)C#N)nc2C)nc2[nH]cc(C(F)(F)F)c12 [Compound B-14, 2-(4-((4-methoxy-5-(trifluoromethyl)-7H-pyrrolo[2,3-d]pyrimidin-2-yl)amino)-3-methyl-1H-pyrazol-1-yl)-2-methylpropanenitrile]",2 to 20 nM

# Same assay, conditions: Table C-2; 5 nM LRRK2, 134 μM ATP, 60 minute reaction, 23° C.
row,Compound,IC50
1,"Cc1nn(C(CF)CF)cc1Nc1nc(C2CC2)c2nc[nH]c2n1 [Compound C-1, 6-cyclopropyl-N-[1-[2-fluoro-1-(fluoromethyl)ethyl]-3-methyl-pyrazol-4-yl]-9H-purin-2-amine]",< 50 nM
2,"Cc1c(Nc2nc(C3CC3)c3nc[nH]c3n2)cnn1C(CF)CF [Compound C-2, 6-cyclopropyl-N-(1-(1,3-difluoropropan-2-yl)-5-methyl-1H-pyrazol-4-yl)-9H-purin-2-amine]",< 50 nM
3,"Cc1c(Nc2nc(C3CC3)c3nc[nH]c3n2)cnn1C(F)F [Compound C-4, 6-cyclopropyl-N-(1-(difluoromethyl)-5-methyl-1H-pyrazol-4-yl)-9H-purin-2-amine]",< 50 nM
4,"Cc1c(Nc2nc(C3CC3)c3nc[nH]c3n2)cnn1C [Compound C-5, 6-cyclopropyl-N-(1,5-dimethylpyrazol-4-yl)-9H-purin-2-amine]",< 50 nM
5,"Cc1nn(C)cc1Nc1nc(C2CC2)c2nc[nH]c2n1 [Compound C-6, 6-cyclopropyl-N-(1,3-dimethylpyrazol-4-yl)-9H-purin-2-amine]",< 50 nM
6,"Cc1c(Nc2nc(C3CC3)c3nc[nH]c3n2)cnn1CC1CC1 [Compound C-7, 6-cyclopropyl-N-(1-(cyclopropylmethyl)-5-methyl-1H-pyrazol-4-yl)-9H-purin-2-amine]",< 50 nM
7,"c1nc2c(C3CC3)nc(Nc3cnn4c3CC3(CC3)C4)nc2[nH]1 [Compound C-8, N-(6-cyclopropyl-9H-purin-2-yl)spiro[4,6-dihydropyrrolo[1,2-b]pyrazole-5,1 cyclopropane]-3-amine]",< 50 nM
8,"Cc1nn(C(C)(C)C#N)cc1Nc1nc(C2CC2)c2nc[nH]c2n1 [Compound C-9, 2-(4-((6-cyclopropyl-9H-purin-2-yl)amino)-3-methyl-1H-pyrazol-1-yl)-2-methylpropanenitrile]",< 50 nM
9,"Cc1nn(C(C)(C)C#N)cc1Nc1nc(C2CC2)c2c(C#N)c[nH]c2n1 [Compound C-10, 2-[[1-(1-cyano-1-methyl-ethyl)-3-methyl-pyrazol-4-yl]amino]-4-cyclopropyl-7H-pyrrolo[2,3-d]pyrimidine-5-carbonitrile]",< 50 nM
10,"Cc1c(Nc2nc(C3CC3)c3c(C#N)c[nH]c3n2)cnn1C(CF)CF [Compound C-11, 4-cyclopropyl-2-[[1-[2-fluoro-1-(fluoromethyl)ethyl]-5-methyl-pyrazol-4-yl]amino]-7H-pyrrolo[2,3-d]pyrimidine-5-carbonitrile]",< 50 nM
11,"Cc1nn(C(CF)CF)cc1Nc1nc(C2CC2)c2c(C#N)c[nH]c2n1 [Compound C-12, 4-cyclopropyl-2-[[1-[2-fluoro-1-(fluoromethyl)ethyl]-3-methyl-pyrazol-4-yl]amino]-7H-pyrrolo[2,3-d]pyrimidine-5-carbonitrile]",< 50 nM
12,"N#Cc1c[nH]c2nc(Nc3cnn4c3CC3(CC3)C4)nc(C3CC3)c12 [Compound C-13, 4-cyclopropyl-2-(spiro[4,6-dihydropyrrolo[1,2-b]pyrazole-5,1′-cyclopropane]-3-ylamino)-7H-pyrrolo[2,3-d]pyrimidine-5-carbonitrile]",< 50 nM
13,"Cc1nn(C(C)(C)C#N)cc1Nc1nc(C2CC2)c2c(F)c[nH]c2n1 [Compound C-14, 2-[4-[(4-cyclopropyl-5-fluoro-7H-pyrrolo[2,3-d]pyrimidin-2-yl)amino]-3-methyl-pyrazol-1-yl]-2-methyl-propanenitrile]",< 50 nM
14,"Cn1ccc(Nc2cc(C3CC3)c3nc[nH]c3n2)n1 [Compound C-17, 7-cyclopropyl-N-(1-methyl-1H-pyrazol-3-yl)-3H-imidazo[4,5-b]pyridin-5-amine]",> 100 nM
15,"Cc1c(Nc2nc(C3CC3)c3c(C#N)c[nH]c3n2)cnn1C [Compound C-18, 4-cyclopropyl-2-[(1,5-dimethylpyrazol-4-yl)amino]-7H-pyrrolo[2,3-d]pyrimidine-5-carbonitrile]",< 50 nM
16,"Cc1nn(C)cc1Nc1nc(C2CC2)c2c(C#N)c[nH]c2n1 [Compound C-19, 4-cyclopropyl-2-[(1,3-dimethylpyrazol-4-yl)amino]-7H-pyrrolo[2,3-d]pyrimidine-5-carbonitrile]",< 50 nM
17,"Cc1cn(C)nc1Nc1cc(C2CC2)c2c(C#N)c[nH]c2n1 [Compound C-20, 4-cyclopropyl-6-((1,4-dimethyl-1H-pyrazol-3-yl)amino)-1H-pyrrolo[2,3-b]pyridine-3-carbonitrile]",< 50 nM
